Test: Degradation rate of curcumin on storage
Type: physicochemical
Details: storage at room temperature for 7 days
Experimental: Curcumin was dissolved in an oil phase. The CNCs with low aspect ratio obtained in the Example 6 were diluted to 0.3 wt %, and an emulsion was prepared according to the oil-water ratio of 1:9. Subsequently, high-speed shearing was carried out at 10000 rpm for 2 min using high-speed shearing equipment to obtain a coarse emulsion, and then the coarse emulsion was circulated 4 times at 30 MPa using a high-pressure homogenizer to obtain the final Pickering emulsion. Determination of degradation rate of curcumin: a certain volume of emulsion was taken; the emulsion was mixed with ethanol in a ratio of 1:1; the mixture was centrifuged at 11000 rpm for 5 min; the supernatant was collected; and the absorbance at 426 nm was measured. Formula of degradation rate: Degradation rate (100%)=m1/m2×100, wherein m1 is the mass of curcumin after the emulsion is placed, and m2 is the mass of curcumin before the emulsion is placed.

degradation rate of curcumin: 80%
Compound: COc1cc(/C=C/C(=O)CC(=O)/C=C/c2ccc(O)c(OC)c2)ccc1O [curcumin in the aqueous solution, Curcumin]
